Results published in ChEMBL document CHEMBL1148235, “Amidines as amide bond replacements in VLA-4 antagonists” (Bioorg Med Chem Lett, 2004).

Experiments:
[1] = Plasma clearance of compound in rats was evaluated; format: ADME, organism-based; details: rat, read-out: Clp
[2] = Bioavailability in rat (dose 1 mg/kg i.v. and 2 mg/kg p.o.); format: ADME, organism-based; details: in vivo, po
[3] = Inhibitory activity of compound against very late antigen 4 using VCAM-Ig ligand; design: species or system Rattus norvegicus
[4] = biological target: T1, Integrin alpha-4/beta-7 (Homo sapiens, UniProt P13612+P26010); assay: Inhibitory activity of compound against alpha4-beta7 integrin using MAdCAM-Ig ligand; format: protein-complex assay
T1 sequence (P13612 whole entry): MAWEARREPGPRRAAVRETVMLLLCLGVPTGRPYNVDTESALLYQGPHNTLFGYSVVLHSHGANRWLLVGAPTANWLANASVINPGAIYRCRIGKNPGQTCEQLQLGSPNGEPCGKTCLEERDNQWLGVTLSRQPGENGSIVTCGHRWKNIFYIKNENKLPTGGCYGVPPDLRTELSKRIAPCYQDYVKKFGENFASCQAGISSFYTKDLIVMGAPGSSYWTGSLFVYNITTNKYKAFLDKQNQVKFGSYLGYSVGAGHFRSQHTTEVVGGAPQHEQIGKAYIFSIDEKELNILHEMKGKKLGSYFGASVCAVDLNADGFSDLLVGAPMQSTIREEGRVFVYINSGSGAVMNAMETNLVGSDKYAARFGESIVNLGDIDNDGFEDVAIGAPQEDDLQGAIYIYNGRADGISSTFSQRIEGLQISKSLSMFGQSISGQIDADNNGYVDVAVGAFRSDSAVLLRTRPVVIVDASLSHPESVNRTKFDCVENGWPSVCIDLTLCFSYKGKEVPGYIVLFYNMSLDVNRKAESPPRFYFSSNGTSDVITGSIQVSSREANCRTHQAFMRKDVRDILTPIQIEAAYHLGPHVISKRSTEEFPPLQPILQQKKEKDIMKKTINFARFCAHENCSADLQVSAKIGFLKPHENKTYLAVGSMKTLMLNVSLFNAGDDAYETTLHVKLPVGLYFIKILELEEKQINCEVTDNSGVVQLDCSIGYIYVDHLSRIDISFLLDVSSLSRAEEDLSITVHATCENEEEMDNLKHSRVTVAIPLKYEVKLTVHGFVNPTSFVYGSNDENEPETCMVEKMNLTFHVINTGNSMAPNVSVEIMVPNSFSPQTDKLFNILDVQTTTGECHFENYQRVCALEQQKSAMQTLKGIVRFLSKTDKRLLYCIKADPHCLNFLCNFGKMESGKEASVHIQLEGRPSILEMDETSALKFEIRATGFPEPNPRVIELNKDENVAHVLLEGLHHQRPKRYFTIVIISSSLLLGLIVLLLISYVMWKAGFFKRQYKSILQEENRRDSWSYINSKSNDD
T1 sequence (P26010 whole entry): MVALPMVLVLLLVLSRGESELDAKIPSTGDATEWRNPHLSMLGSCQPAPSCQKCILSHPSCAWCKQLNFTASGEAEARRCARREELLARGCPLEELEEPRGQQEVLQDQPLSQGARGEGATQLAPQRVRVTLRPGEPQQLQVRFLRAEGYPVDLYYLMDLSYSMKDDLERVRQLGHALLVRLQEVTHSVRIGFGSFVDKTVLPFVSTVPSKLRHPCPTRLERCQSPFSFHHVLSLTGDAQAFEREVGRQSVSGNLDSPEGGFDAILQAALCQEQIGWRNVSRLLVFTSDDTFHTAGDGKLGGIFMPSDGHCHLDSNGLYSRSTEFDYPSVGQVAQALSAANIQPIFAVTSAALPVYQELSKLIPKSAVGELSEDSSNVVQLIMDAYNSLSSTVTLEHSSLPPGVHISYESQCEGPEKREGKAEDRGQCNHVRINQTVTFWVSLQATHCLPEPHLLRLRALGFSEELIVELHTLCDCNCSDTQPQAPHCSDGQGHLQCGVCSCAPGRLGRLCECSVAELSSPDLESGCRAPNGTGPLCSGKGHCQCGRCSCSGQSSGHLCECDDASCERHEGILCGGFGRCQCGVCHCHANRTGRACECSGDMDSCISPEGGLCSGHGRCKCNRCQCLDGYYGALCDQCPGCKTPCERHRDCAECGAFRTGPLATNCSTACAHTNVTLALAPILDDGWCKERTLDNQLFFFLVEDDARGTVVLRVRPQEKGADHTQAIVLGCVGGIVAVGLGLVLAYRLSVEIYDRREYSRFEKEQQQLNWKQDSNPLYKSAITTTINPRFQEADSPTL

[5] = Partition coefficient (logD); format: physicochemical; details: octanol/water
[6] = biological target: Integrin alpha-4/beta-1 (Homo sapiens) (UniProt P05556+P13612); assay: Inhibition of VCAM-Ig binding to very late activating antigen-4 (VLA-4) at 10 uM; format: protein-complex assay
[7] = Dissociation constant was evaluated; format: physicochemical

`COc1cccc(OC)c1-c1ccc(C[C@H](/N=C(\N)[C@@H]2CCN2S(=O)(=O)c2ccccc2)C(=O)O)cc1` gave a clearance [1] of 61 mL/min/kg, a bioavailability [2] of 0.2% and an IC50 [3] of 0.1 nM. It also gave an IC50 [4] of 19 nM.

With `COc1cccc(OC)c1-c1ccc(C[C@H](/N=C(\NO)[C@@H]2CCN2S(=O)(=O)c2ccccc2)C(=O)O)cc1` the IC50 [3] was 0.14 nM, the IC50 [4] was 98 nM and the logD [5] was 2.3.

For `COc1cccc(OC)c1-c1ccc(C[C@@H]2/N=C(/[C@@H]3CCN3S(=O)(=O)c3ccccc3)NCc3nccn3C2=O)cc1`, the clearance [1] was 382 mL/min/kg, the bioavailability [2] was 0.6% and the IC50 [4] was 4090 nM. It also gave an inhibition [6] of 85%.

`COc1cccc(OC)c1-c1ccc(C[C@@H]2N=C([C@@H]3CCN3S(=O)(=O)c3ccccc3)NNC2=O)cc1` showed a clearance [1] of 86 mL/min/kg, a bioavailability [2] of 3.3% and an IC50 [3] of 58 nM. The logD [5] was 3.2.

Work on `COc1cccc(OC)c1-c1ccc(C[C@H](/N=C(\NCC(F)(F)F)[C@@H]2CCN2S(=O)(=O)c2ccccc2)C(=O)O)cc1` yielded a clearance [1] of 45 mL/min/kg, a bioavailability [2] of 1.8% and an IC50 [3] of 0.13 nM. It also gave an IC50 [4] of 27 nM and a logD [5] of 3.3.

For `COc1cccc(OC)c1-c1ccc(C[C@H](NC(=O)[C@]2(C)CCN2S(=O)(=O)c2cc(Cl)cc(Cl)c2)C(=O)O)cc1`, the clearance [1] was 110 mL/min/kg and the IC50 [3] was 0.07 nM.

For `COc1cccc(OC)c1-c1ccc(C[C@H](NC(=O)[C@@H]2CCN2S(=O)(=O)c2ccccc2)C(=O)O)cc1`, the clearance [1] was 107 mL/min/kg, the bioavailability [2] was 1.4% and the IC50 [3] was 0.1 nM. The IC50 [4] was 78 nM and the logD [5] was 2.6.

`COc1cccc(OC)c1-c1ccc(C[C@H](OC(=O)[C@@H]2CCN2S(=O)(=O)c2cc(Cl)cc(Cl)c2)C(=O)O)cc1` showed an IC50 [3] of 15 nM and an IC50 [4] of 3000 nM.

In the case of `CN/C(=N\[C@@H](Cc1ccc(-c2c(OC)cccc2OC)cc1)C(=O)O)[C@@H]1CCN1S(=O)(=O)c1cc(Cl)cc(Cl)c1`, the clearance [1] is reported as 85 mL/min/kg, the bioavailability [2] is reported as 0.8% and the IC50 [3] is reported as 0.05 nM. The pKa [7] was 10.2, the IC50 [4] was 21 nM and the logD [5] was 2.7.

`COc1cccc(OC)c1-c1ccc(C[C@H](/N=C(\NCC2CCOOCC2)[C@@H]2CCN2S(=O)(=O)c2ccccc2)C(=O)O)cc1` gave a clearance [1] of 67 mL/min/kg, a bioavailability [2] of 0.6% and an IC50 [3] of 0.28 nM. For the same molecule, the IC50 [4] was 43 nM and the logD [5] was 2.6.

For `COc1cccc(OC)c1-c1ccc(C[C@H](NC[C@@H]2CCCN2S(=O)(=O)c2cc(Cl)cc(Cl)c2)C(=O)O)cc1`, the IC50 [3] was 140 nM and the IC50 [4] was 8400 nM.

`COc1cccc(OC)c1-c1ccc(C[C@H](/N=C(\NCc2ccccn2)[C@@H]2CCN2S(=O)(=O)c2ccccc2)C(=O)O)cc1` showed an IC50 [3] of 0.15 nM, an IC50 [4] of 35 nM and a logD [5] of 2.8.

For `COc1cccc(OC)c1-c1ccc(C[C@H](/N=C(\NCC(=O)O)[C@@H]2CCN2S(=O)(=O)c2ccccc2)C(=O)O)cc1`, the IC50 [3] was 0.17 nM, the IC50 [4] was 78 nM and the logD [5] was 1.9.

`COc1cccc(OC)c1-c1ccc(C[C@H](/N=C(\N)[C@@H]2CCN2S(=O)(=O)c2cc(Cl)cc(Cl)c2)C(=O)O)cc1` showed a clearance [1] of 90 mL/min/kg, a bioavailability [2] of 0.3% and an IC50 [3] of 0.05 nM. It also gave an IC50 [4] of 16 nM and a logD [5] of 4.1.

`CN/C(=N\[C@@H](Cc1ccc(-c2c(OC)cccc2OC)cc1)C(=O)O)[C@@H]1CCN1S(=O)(=O)c1ccccc1` showed a clearance [1] of 81 mL/min/kg, a bioavailability [2] of 0.7% and an IC50 [3] of 0.12 nM. It also gave a pKa [7] of 10.5, an IC50 [4] of 40 nM and a logD [5] of 2.4.

Molecule `CON/C(=N\[C@@H](Cc1ccc(-c2c(OC)cccc2OC)cc1)C(=O)O)[C@@H]1CCN1S(=O)(=O)c1ccccc1` has a clearance [1] of 79 mL/min/kg, a bioavailability [2] of 9.3% and an IC50 [3] of 0.17 nM. The pKa [7] was < 4, the IC50 [4] was 35 nM and the logD [5] was 2.8.

With `COc1cccc(OC)c1-c1ccc(C[C@H](/N=C(\NS(C)(=O)=O)[C@@H]2CCN2S(=O)(=O)c2ccccc2)C(=O)O)cc1` the clearance [1] was 103 mL/min/kg, the bioavailability [2] was 1.6% and the IC50 [3] was 0.07 nM. The pKa [7] was -2, the IC50 [4] was 2.2 nM and the logD [5] was 2.4.

For `COc1cccc(OC)c1-c1ccc(C[C@@H](C(=O)O)N(C)C(=O)[C@@H]2CCN2S(=O)(=O)c2cc(Cl)cc(Cl)c2)cc1`, the IC50 [3] was 350 nM.

For `COc1cccc(OC)c1-c1ccc(C[C@H](NC(=O)[C@@H]2CCN2S(=O)(=O)c2cc(Cl)cc(Cl)c2)C(=O)O)cc1`, the clearance [1] was 102 mL/min/kg, the IC50 [3] was 0.08 nM and the logD [5] was 4.

Molecule `COc1cccc(OC)c1-c1ccc(C[C@H](/N=C(\NCC(C)(C)C)[C@@H]2CCN2S(=O)(=O)c2ccccc2)C(=O)O)cc1` has a clearance [1] of 64 mL/min/kg, a bioavailability [2] of 0% and an IC50 [3] of 0.21 nM. It also gave an IC50 [4] of 120 nM and a logD [5] of 3.7.

For `COc1cccc(OC)c1-c1ccc(C[C@H](/N=C(\NC#N)[C@@H]2CCN2S(=O)(=O)c2ccccc2)C(=O)O)cc1`, the clearance [1] was 93 mL/min/kg, the bioavailability [2] was 3% and the IC50 [3] was 0.09 nM. The pKa [7] was -2, the IC50 [4] was 4.1 nM and the logD [5] was 2.5.

In the case of `COCCN/C(=N\[C@@H](Cc1ccc(-c2c(OC)cccc2OC)cc1)C(=O)O)[C@@H]1CCN1S(=O)(=O)c1ccccc1`, the clearance [1] is reported as 81 mL/min/kg, the bioavailability [2] is reported as 0% and the IC50 [3] is reported as 0.28 nM. The IC50 [4] was 65 nM.
